The subject of one assay is transcription from VEGF promoter. Nature of the assay: VEGF transcription-suppressing activity, VEGF-PLAP reporter in U251/1-8 cell. Type of assay: cell-based. Conditions: Homo sapiens, U-251; U251/1-8 cell, PLAP activity, low oxygen 18 hours; read-out: IC50 values of VEGF transcription-suppressing activity (range given). The text has this:
In order to prepare reporter system reflecting transcription from VEGF promoter, VEGF promoter sequence was cloned, and inserted in secretory alkali phosphatase (PLAP) vector to construct reporter vector.
In order to obtain the promoter region of human VEGF, VEGF genome was cloned from phage library. PCR primers having the sequences described in Sequence Numbers 1 and 2 were designed based on VEGF cDNA (GenBank accession number: X62568) and a fragment having about 340 bp was obtained by carrying out PCR. Human genome phage library (Human genomic library, Clontech Co.) was screened using this as a probe to obtain pUC18-VEGFA containing about 5.4 kb of VEGF 5′ flanking region. The pUC18-VEGFA was cleaved by KpnI/NheI, VEGF promoter region of about 2.3 kb obtained was inserted in the multi cloning site KpnI/NheI of secretory alkali phosphatase (PLAP) vector (Goto et al, Mol. Pharmacol., 49, 860-873, 1996), and thus, VEGF-PLAP vector was constructed.
The above-mentioned VEGF-PLAP vector was introduced in the U251 cell cultured in the DULBECCO-modified eagle medium (DMEM; manufactured by SIGMA Co., Ltd.) containing 10% fetal calf serum, and cultured in the presence of 1 mg/ml G418 (Merck Co.) to establish G418 resistant stable clone (U251/1-8 cell).
It was confirmed that U251/1-8 cell secreted PLAP under low oxygen (2% O2 incubator) in the same manner as in the report (Cell. Mol. Biol. Res. 40, 35-39, 1994) and was a reporter system reflecting the transcription from VEGF promoter. The screening of the compound suppressing VEGF production which was induced by low oxygen stimulation was carried out below using the clone.
In order to remove the influence of alkaline phosphates in serum, U251/1-8 cell was rinsed twice with the adequate amount of PBS (Phosphate buffered saline), diluted in the DMEM medium containing 10% of serum in which alkaline phosphates was inactivated by the treatment of 60° C. for 20 min., and dispensed in 96-well plates by 4×10^4 cells/180 μl.
After culturing at 37° C. overnight in a CO2 incubator (5% CO2), 20 μL of the above-mentioned incubation solution containing the test compound diluted with 3-fold succession was added, and then they were incubated in a low oxygen ([…]) incubator for 18 hours. With respect to the PLAP activity in the culture supernatants, 10 μl of the supernatants was added to 50 μl of 0.28 M Na2CO3—NaHCO3 buffer solution (pH 10.0, 8.0 mM MgSO4), and finally 50 μl of alkaline phosphatase substrate (LUMISTEIN, Genomescience Co.) was added. After reacting for one hour, the alkaline phosphatase activity of the PLAP was measured by detecting the chemical luminescence by a micro plate reader (Perkin-Elmer Co.).
The PLAP activity under usual oxygen was set as 0%, the PLAP activity of cell which was treated under low oxygen was set as 100%, and the concentration suppressing the PLAP activity by 50% was set as the IC50 value of PLAP.
The IC50 is the midpoint of a concentration-inhibition curve. `CC/C(=N\OCc1ccccc1)C(C)C1OC1CC(C)/C=C/C=C(\C)C1OC(=O)CC(O)CCC(C)(O)C(OC(C)=O)/C=C/C1C` (stereo not shown) [B75, (8E,12E,14E)-7-Acetoxy-21-benzyloxyimino-3,6-dihydroxy-6,10,12,16,20-pentamethyl-18,19-epoxytricosa-8,12,14-trien-11-olide]: the IC50 lay in the range of 0.5 to 100 nM.

Consider `CCC(OC(=O)CO)C(C)C1OC1CC(C)/C=C/C=C(\C)C1OC(=O)CC(O)CCC(C)(O)C(OC(C)=O)/C=C/C1C` (stereo not shown) [B27], for which the half-maximal inhibitory concentration (IC50) fell in the range of 0.5 to 100 nM.

As for `CCC(O)C(C)C1OC1CC(C)/C=C/C=C(\C)C1OC(=O)CC(O)CCC(C)(O)C(OC(=O)NC2CCN(C)CC2)/C=C/C1C` (stereo not shown) [B79, (8E,12E,14E)-3,6,21-Trihydroxy-6,10,12,16,20-pentamethyl-7-N-(1-methylpiperidin-4-yl)carbamoyloxy-18,19-epoxytricosa-8,12,14-trien-11-olide], the IC50 is 0.5 to 100 nM.

On to `CC/C(=N\OC)C(C)C1OC1CC(C)/C=C/C=C(\C)C1OC(=O)CC(O)CCC(C)(O)C(OC(C)=O)/C=C/C1C` (stereo not shown) [B74, (8E,12E,14E)-7-Acetoxy-3,6-dihydroxy-21-methoxyimino-6,10,12,16,20-pentamethyl-18,19-epoxytricosa-8,12,14-trien-11-olide], for which the IC50 is 0.5 to 100 nM.

As to `CCC(O)C(C)C1OC1CC(C)/C=C/C=C(\C)C1OC(=O)CC(O)CCC(C)(O)C(OC(N)=O)/C=C/C1C` (stereo not shown) [B44, (8E,12E,14E)-7-Carbamoyloxy-3,6,21-trihydroxy-6,10,12,16,20-pentamethyl-18,19-epoxytricosa-8,12,14-trien-11-olide], the IC50 was in the range of 0.5 to 100 nM.

Turning to `CCC(O)C(C)C1OC1CC(C)/C=C/C=C(\C)C1OC(=O)CC(O)CCC(C)(O)C(OC(=O)CN2CCOCC2)/C=C/C1C` (stereo not shown) [B40, (8E,12E,14E)-3,6,21-Trihydroxy-6,10,12,16,20-pentamethyl-7-(morpholin-4-yl)acetoxy-18,19-epoxytricosa-8,12,14-trien-11-olide], the IC50 was in the range of 0.5 to 100 nM.

Take `CCC(OS(C)(=O)=O)C(C)C1OC1CC(C)/C=C/C=C(\C)C1OC(=O)CC(O)CCC(C)(O)C(OC(C)=O)/C=C/C1C` (stereo not shown) [B16-1, (8E,12E,14E)-7-Acetoxy-3,6-dihydroxy-21-methanesulfonyloxy-6,10,12,16,20-pentamethyl-18,19-epoxytricosa-8,12,14-trien-11-olide]: the IC50 is 0.5 to 100 nM.

Take `CCC(O)C(C)C1OC1C(O)C(C)/C=C/C=C(\C)C1OC(=O)CC(O)CCC(C)(O)C(OC(C)=O)/C=C/C1C` (stereo not shown) [11107P]: the IC50 is 1 to 100 nM.

Regarding `CCC(O)C(C)C1OC1CC(C)/C=C/C=C(\C)C1OC(=O)CC(O)CCC(C)(O)C(OC(=O)NC)/C=C/C1C` (stereo not shown) [B45, (8E,12E,14E)-3,6,21-Trihydroxy-6,10,12,16,20-pentamethyl-7-N-methylcarbamoyloxy-18,19-epoxytricosa-8,12,14-trien-11-olide], the IC50 fell in the range of 0.5 to 100 nM.

As for `CCC(O)C(C)C1OC1CC(C)/C=C/C=C(\C)C1OC(=O)CC(O)CCC(C)(O)C(OC(=O)N2CCN(C)CC2)/C=C/C1C` (stereo not shown) [B50, (8E,12E,14E)-3,6,21-Trihydroxy-6,10,12,16,20-pentamethyl-7-((4-methylpiperazin-1-yl)carbonyl)oxy-18,19-epoxytricosa-8,12,14-trien-11-olide], the IC50 lay within 0.5 to 100 nM.

On to `CCC(OC)C(C)C1OC1CC(C)/C=C/C=C(\C)C1OC(=O)CC(O)CCC(C)(O)C(OC(C)=O)/C=C/C1C` (stereo not shown) [B8-1, (8E,12E,14E)-7-Acetoxy-3,6-dihydroxy-21-methoxy-6,10,12,16,20-pentamethyl-18,19-epoxytricosa-8,12,14-trien-11-olide], for which the IC50 is 0.5 to 100 nM.

`CCC(O)C(C)C1OC1CC(C)/C=C/C=C(\C)C1OC(=O)CC(O)CCC(C)(O)C(OC(=O)NCCc2ccccn2)/C=C/C1C` (stereo not shown) [B47, (8E,12E,14E)-3,6,21-Trihydroxy-6,10,12,16,20-pentamethyl-7-N-(2-(2-pyridyl)ethyl)carbamoyloxy-18,19-epoxytricosa-8,12,14-trien-11-olide]: the IC50 was 0.5 to 100 nM.

`CCC(O)C(C)C1OC1CC(C)/C=C/C=C(\C)C1OC(=O)CC(O)CCC(C)(O)C(OC(=O)N2CCCN(C)CC2)/C=C/C1C` (stereo not shown) [B62, (8E,12E,14E)-3,6,21-Trihydroxy-6,10,12,16,20-pentamethyl-7-((4-methylhomopiperazin-1-yl)carbonyl)oxy-18,19-epoxytricosa-8,12,14-trien-11-olide]: the IC50 lay within 0.5 to 100 nM.

For `CCC(OC(C)=O)C(C)C1OC1CC(C)/C=C/C=C(\C)C1OC(=O)/C=C\CCC(C)(O)C(OC(C)=O)/C=C/C1C` (stereo not shown) [B43-1, (2Z,8E,12E,14E)-7,21-Diacetoxy-6-hydroxy-6,10,12,16,20-pentamethyl-18,19-epoxytricosa-8,12,14-trien-11-olide], the IC50 is 0.5 to 100 nM.

As to `CCC(O)C(C)C1OC1CC(C)/C=C/C=C(\C)C1OC(=O)CC(O)CCC(C)(O)C(OC(=O)NCc2ccccn2)/C=C/C1C` (stereo not shown) [B56, (8E,12E,14E)-3,6,21-Trihydroxy-6,10,12,16,20-pentamethyl-7-N-(2-pyridylmethyl)carbamoyloxy-18,19-epoxytricosa-8,12,14-trien-11-olide], the IC50 was 0.5 to 100 nM.

In the case of `CCC(OC(C)=O)C(C)C(Br)C(CC(C)/C=C/C=C(\C)C1OC(=O)CC(O)CCC(C)(O)C(OC(C)=O)/C=C/C1C)OC(C)=O` (stereo not shown) [B23-1, (8E,12E,14E)-7,18,21-Triacetoxy-19-bromo-3,6-dihydroxy-6,10,12,16,20-pentamethyltricosa-8,12,14-trien-11-olide], the IC50 is 0.5 to 100 nM.

On to `CCOCC(=O)OC1CCC(C)(O)C(OC(C)=O)/C=C/C(C)C(/C(C)=C/C=C/C(C)CC2OC2C(C)C(O)CC)OC(=O)C1` (stereo not shown) [B24, (8E,12E,14E)-7-Acetoxy-3-ethoxyacetoxy-6,21-dihydroxy-6,10,12,16,20-pentamethyl-18,19-epoxytricosa-8,12,14-trien-11-olide], for which the IC50 is 0.5 to 100 nM.

Regarding `CCC(O)C(C)C1OC1CC(C)/C=C/C=C(\C)C1OC(=O)CC(O)CCC(C)(O)C(OC(=O)NCCN2CCCC2)/C=C/C1C` (stereo not shown) [B64, (8E,12E,14E)-3,6,21-Trihydroxy-6,10,12,16,20-pentamethyl-7-N-(2-(pyrrolidin-1-yl)ethyl)carbamoyloxy-18,19-epoxytricosa-8,12,14-trien-11-olide], the half-inhibitory concentration (IC50) is 0.5 to 100 nM.

Consider `CCC(O)C(C)C1OC1CC(C)/C=C/C=C(\C)C1OC(=O)CC(O)CCC(C)(O)C(OC(=O)N2CCN(CC)CC2)/C=C/C1C` (stereo not shown) [B65, (8E,12E,14E)-3,6,21-Trihydroxy-6,10,12,16,20-pentamethyl-7-((4-ethylpiperazin-1-yl)carbonyl)oxy-18,19-epoxytricosa-8,12,14-trien-11-olide], for which the IC50 was 0.5 to 100 nM.

Take `CCC(O)C(C)C(Cl)C(O)CC(C)/C=C/C=C(\C)C1OC(=O)CC(O)CCC(C)(O)C(OC(C)=O)/C=C/C1C` (stereo not shown) [B1-1, (8E,12E,14E)-7-Acetoxy-19-chloro-3,6,18,21-tetrahydroxy-6,10,12,16,20-pentamethyltricosa-8,12,14-trien-11-olide]: the IC50 was in the range of 0.5 to 100 nM.

With `CCC(O)C(C)C1OC1CC(C)/C=C/C=C(\C)C1OC(=O)CC(O)CCC(C)(O)C(OC(=O)NCCN2CCOCC2)/C=C/C1C` (stereo not shown) [B59, (8E,12E,14E)-3,6,21-Trihydroxy-6,10,12,16,20-pentamethyl-7-N-(2-(morpholin-4-yl)ethyl)carbamoyloxy-18,19-epoxytricosa-8,12,14-trien-11-olide], the IC50 lay within 0.5 to 100 nM.

On to `CCC(OC(=O)c1cccnc1)C(C)C1OC1CC(C)/C=C/C=C(\C)C1OC(=O)CC(O)CCC(C)(O)C(OC(C)=O)/C=C/C1C` (stereo not shown) [B29, (8E,12E,14E)-7-Acetoxy-3-6-dihydroxy-6,10,12,16,20-pentamethyl-21-nicotinoxy-18,19-epoxytricosa-8,12,14-trien-11-olide], for which the IC50 lay within 0.5 to 100 nM.

As to `CCOCC(=O)OC(CC)C(C)C1OC1CC(C)/C=C/C=C(\C)C1OC(=O)CC(O)CCC(C)(O)C(OC(C)=O)/C=C/C1C` (stereo not shown) [B25, (8E,12E,14E)-7-Acetoxy-21-ethoxyacetoxy-3,6-dihydroxy-6,10,12,16,20-pentamethyl-18,19-epoxytricosa-8,12,14-trien-11-olide], the IC50 fell in the range of 0.5 to 100 nM.

For the molecule `CCC(O)C(C)C1OC1CC(C)/C=C/C=C(\C)C1OC(=O)CC(O)/C=C/C(C)(O)C(OC(C)=O)/C=C/C1C` (stereo not shown) [11107H], the IC50 lay within 1 to 100 nM.

The assay is the same for the next values; noted with them: Homo sapiens, U-251; U251/1-8 cell, PLAP activity, low oxygen 18 hours; read-out: VEGF transcription suppressing activity (IC50: nM).
For the molecule `CCC(O)C(C)C1OC1CC(C)/C=C/C=C(\C)C1OC(=O)CC(O)/C=C/C(C)(O)C(OC(C)=O)/C=C/C1C` (stereo not shown) [11107H], the IC50 amounted to 3.1 nM.

The values above are taken from patent publication US7667052B2 (Eisai R&D Management Co., Ltd., priority 2003, dated 2010).
